Data on one compound can be found in patent US12403154B2, “Administration of sting agonist and checkpoint inhibitors” (Takeda Pharmaceutical Company Limited, priority 2019, dated 2025).

Type in all cases: in vivo
In assay [1] the test system is WEHI-3 mouse myelomonocytic leukemia cell line. Briefly: WEHI-3 mouse syngeneic tumor model (Study 3). To be noted: WEHI3 model; vs PBS; time-to-progression (tumor 1000 mm^3); Compound No. 14 0.25 mg/kg IV Day 0, 3, 6; anti-mPD-1 10 mg/kg IP Day 0, 3, 6, 13. Here is the method:
WEHI-3 Study 3: WEHI-3 is a mouse myelomonocytic leukemia cell line. WEHI-3 mouse syngeneic tumor model was generated by subcutaneous inoculation with 0.1×10^6 WEHI-3 cells (cell suspension) in approximately 11 weeks old female BALB/c mice (Vital River Laboratory Animal Technology Co., Ltd., Beijing, China) in the flank. When the mean tumor volume reached approximately 60 mm^3, the animals were randomized into one vehicle control and four treatment groups (n=10/group). Mice were then dosed with PBS or Compound No. 14 or anti-mouse PD-1 antibody or Compound No. 14 plus anti-mouse PD-1 antibody over a 21-day period. Tumor growth and body weight were measured twice per week during the treatment and post-treatment periods, and mice were humanely euthanized once they had reached their humane endpoint. […]
(§1) Tumors were measured twice weekly using vernier calipers. Tumor volumes were calculated using standard equation: V=W^2×L/2, where V=volume, W=width, and L=length for the tumor. […] Tumor size and body weight were measured twice a week for the duration of the study. […]
(§2) After the transformation, linear interpolation was used to estimate the time (in days) since randomization each mouse's tumor volume reaches 1000 mm^3. […] In case of a mouse's tumor having not reached 1000 mm^3 at the end of study, the last day the mouse was on study was recorded and right-censored. […]

The test system of assay [2] is A20 mouse B-cell lymphoma cell line. Nature of the assay: A20 mouse syngeneic tumor model (Study 1). On the procedure:
A20 Study 1: A20 is a mouse B-cell lymphoma cell line. A20 mouse syngeneic tumor model was generated by subcutaneous inoculation with 0.4×10^6 A20 cells (cell suspension) in approximately 9 weeks old female BALB/c mice (Vital River Laboratory Animal Technology Co., Ltd., Beijing, China) in the flank. When the mean tumor volume reached approximately 55 mm^3, the animals were randomized into one vehicle control and three treatment groups (n=10/group). Mice were then dosed with PBS or Compound No. 14 or anti-mouse PD-1 antibody or Compound No. 14 plus anti-mouse PD-1 antibody over a 31-day period. Tumor growth and body weight were measured twice per week during the treatment and post-treatment periods, and mice were humanely euthanized once they had reached their humane endpoint. […]
as §1, §2

The test system of assay [3] is RM-1 mouse prostate carcinoma cell line. Briefly: RM-1 mouse syngeneic tumor model (Study 4). To be noted: RM-1 model; vs PBS; time-to-progression (tumor 1000 mm^3); Compound No. 14 0.25 mg/kg IV Day 0, 3, 6; anti-mPD-1 10 mg/kg IP Day 0, 3, 6, 13. Here is the method: RM-1 Study 4: RM-1 is a mouse prostate carcinoma cell line. RM-1 mouse syngeneic tumor model was generated by subcutaneous inoculation with 0.8×10^6 RM-1 cells (cell suspension) in 10 weeks old female C57BL/6 mice (Vital River Laboratory Animal Technology Co., Ltd., Beijing, China) in the flank. When the mean tumor volume reached approximately 60 mm^3, the animals were randomized into one vehicle control and four treatment groups (n=10/group). Mice were then dosed with PBS or Compound No. 14 or anti-mouse PD-1 antibody or Compound No. 14 plus anti-mouse PD-1 antibody over a 19-day period. Tumor growth and body weight were measured twice per week during the treatment and post-treatment periods, and mice were humanely euthanized once they had reached their humane endpoint. […]
as §1, §2

Assay [4] concerns L5178-R mouse lymphoma cell line. Briefly: L5178-R mouse syngeneic tumor model (Study 2). The following applies: vs PBS, time-to-progression (tumor 1000 mm^3), Compound No. 14 0.25 mg/kg IV Day 0, 3, 6, anti-mPD-1 10 mg/kg IP Day 0, 3, 6. Here is the method:
L5178-R Study 2: L5178-R is a mouse lymphoma cell line. L5178-R mouse syngeneic tumor model was generated by subcutaneous inoculation with 0.2×10^6 L5178-R cells (cell suspension) in approximately 12 weeks old female DBA/2 mice (Vital River Laboratory Animal Technology Co., Ltd., Beijing, China) in the flank. When the mean tumor volume reached approximately 65 mm^3, the animals were randomized into one vehicle control and four treatment groups (n=10/group). Mice were then dosed with PBS or Compound No. 14 or anti-mouse PD-1 antibody or Compound No. 14 plus anti-mouse PD-1 antibody at 10 mg/kg (Q3D×3 & QW×3) over a 10-day period. Tumor growth and body weight were measured twice per week during the treatment and post-treatment periods, and mice were humanely euthanized once they had reached their humane endpoint. […]
as §1, §2

For assay [5], the system named is L1210 mouse leukemia cell line. Briefly: L1210 mouse syngeneic tumor model (Study 5). The following applies: vs PBS, time-to-progression (tumor 1000 mm^3), Compound No. 14 0.25 mg/kg IV Day 0, 3, 6, anti-mPD-1 10 mg/kg IP Day 0, 3, 6, 13. Here is the method:
L1210 Study 5: L1210 is a mouse leukemia cell line. L1210 mouse syngeneic tumor model was generated by subcutaneous inoculation with 0.02×10^6 L1210 cells (cell suspension) in approximately 11 weeks old female DBA/2 mice (Vital River Laboratory Animal Technology Co., Ltd., Beijing, China) in the flank. When the mean tumor volume reached approximately 50 mm^3, the animals were randomized into one vehicle control and four treatment groups (n=10/group). Mice were then dosed with PBS or Compound No. 14 or anti-mouse PD-1 antibody or Compound No. 14 plus anti-mouse PD-1 antibody over a 15-day period. Tumor growth and body weight were measured twice per week during the treatment and post-treatment periods, and mice were humanely euthanized once they had reached their humane endpoint. […]
as §1, §2

SMILES strings stand for the structures.

Take `Nc1ncnc2c1ncn2[C@@H]1O[C@@H]2COP(=O)(S)O[C@@H]3[C@H](O)[C@@H](COP(=O)(S)O[C@H]2[C@H]1F)O[C@H]3n1cc(F)c2c(=O)[nH]cnc21` (stereo partly drawn) [Compound No. 14]: the “HR (Weibull)” value in assay [1] amounted to 0.0487; in assay [2] (A20 model, vs PBS, time-to-progression (tumor 1000 mm^3), Compound No. 14 0.25 mg/kg IV Day 0, 3, 6, anti-mPD-1 10 mg/kg IP Day 0, 3, 6, 13, 20, 27), 0.104; in assay [3] it was 0.425; in assay [4] it was 0.544; in assay [5] it was 0.118. For the same compound, in assay [2] (A20 study, 31 days, n=10/group), the complete responses entry is “one”.
